Assay results taken from PubChem BioAssay (NCI).
“And” between values parts separate entries of the source, which are not always exact repeats. Equal values may be shown once.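 Protocol summary: plate cells (96-well), add compound at 5 concentrations, incubate 48 h, interpolate endpoints linearly. GI50 = concentration required for 50% inhibition of growth. At the TGI there is no net growth.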

What was measured:
Assay in all cases: growth of human tumour cells (NCI), 48 h
[1] = system: U251 CNS
[2] = system: MCF7 breast
[3] = system: COLO 205 colon
[4] = system: ACHN renal
[5] = system: MOLT-4 leukemia
[6] = system: CAKI-1 renal
[7] = system: M14 melanoma
[8] = system: SK-MEL-28 melanoma
[9] = system: HCC-2998 colon
[10] = system: MDA-MB-435

Compound	GI50 [1]	TGI [1]	GI50 [2]	TGI [2]	GI50 [3]	TGI [3]	GI50 [4]	TGI [4]	GI50 [5]	TGI [5]	GI50 [6]	TGI [6]	GI50 [7]	TGI [7]	GI50 [8]	TGI [8]	GI50 [9]	TGI [9]	GI50 [10]	TGI [10]
C[C@@H]1O[C@@H](O[C@H]2C[C@@H](O)[C@]3(CO)C4C(CC[C@]3(O)C2)[C@@]2(O)CC[C@H](C3=CC(=O)OC3)[C@@]2(C)C[C@H]4O)[C@H](O)[C@H](O)[C@H]1O (some centres not stated)	0.025 µM	0.0839 µM	0.0244 µM	0.121 µM	0.0747 µM	0.151 µM	0.0148 µM	0.0461 µM	0.0128 µM	0.0314 µM	0.0166 µM	0.0679 µM	0.0855 µM	0.166 µM	0.0881 µM	0.164 µM	0.088 µM	0.238 µM	0.0595 µM	0.134 µM
O=C1Nc2ccc(F)c3c(OCCO)cc(-c4ccc[nH]4)c1c23	0.9 µM	6.3 µM	0.81 µM	10.9 µM	1.33 µM	5.79 µM	0.608 µM	7.2 µM	1.21 µM	10.3 µM	0.393 µM	3.33 µM	1.4 µM	12.4 µM	4.43 µM	15.1 µM	2.63 µM	10.1 µM	1.46 µM	14.1 µM
COC1=CC(c2ccc[nH]2)=N/C1=C\c1[nH]c(C)c(C(=O)CCC(=O)Oc2ccc3c(c2)CCC2C3CC[C@]3(C)C(=O)CC[C@@H]23)c1C (some centres not stated)	3.31 µM	> 86.7 µM	1.91 µM	> 49.3 µM	21.5 µM	> 100 µM	5.82 µM	> 100 µM	2.71 µM	> 100 µM	8.77 µM	> 100 µM	12.3 µM	33.4 µM	> 70.9 µM	> 100 µM	16.8 µM	> 96.1 µM	7.7 µM	> 100 µM
COCCNCC(O)Cn1c2ccc(Cl)cc2c2cc(Cl)ccc21 (configuration not stated)	1.94 µM	3.93 µM	1.81 µM	3.49 µM	2.08 µM	3.83 µM	1.87 µM	3.76 µM	1.97 µM	4.05 µM	1.7 µM	3.36 µM	2.06 µM	4.16 µM	1.73 µM	3.25 µM	1.81 µM	3.45 µM	1.7 µM	3.19 µM
O=C(CC12CC3CC(CC(C3)C1)C2)NCCOCCOCCNC(=O)c1cc2c(o1)C(=O)c1ccccc1C2=O	1.37 µM	2.81 µM	0.54 µM	2.38 µM	1.28 µM	2.76 µM	1.35 µM	2.72 µM	1.97 µM	4.98 µM	1.46 µM	3.86 µM	0.211 µM	0.462 µM	1.58 µM	3.09 µM	1.78 µM	3.39 µM	0.185 µM	0.343 µM
COc1ccc2c(c1)O/C(=C\c1cccc(OCC(=O)Nc3nc4ccccc4s3)c1)C2=O	12.6 µM	53.3 µM	14.2 µM	> 100 µM	> 100 µM	> 100 µM	12.7 µM	> 100 µM	3.33 µM	20.2 µM	3.04 µM	> 100 µM	36.3 µM	> 100 µM	> 72 µM	> 100 µM	> 100 µM	> 100 µM	14.2 µM	> 100 µM
CS(=O)(=O)c1nccc(-c2c(-c3cccc(OCc4ccc(F)cc4)c3)nc3sccn23)n1	33.1 µM	> 100 µM	8.31 µM	> 100 µM	45 µM	> 100 µM	50.1 µM	> 100 µM	2.64 µM	> 100 µM	3.41 µM	> 100 µM	25.9 µM	> 100 µM	23.8 µM	> 100 µM	2.28 µM	5.54 µM	30.3 µM	> 100 µM
COc1ccc(/C=C2/CN(C(=O)c3ccccc3F)C/C(=C\c3ccc(OC)cc3)C2=O)cc1	2.18 µM	5.14 µM	0.543 µM	3.56 µM	3.82 µM	12.3 µM	2.95 µM	9.46 µM	3.79 µM	49.5 µM	4.87 µM	> 100 µM	2.73 µM	7.51 µM	2.72 µM	7.93 µM	1.91 µM	3.48 µM	2.48 µM	9.93 µM
c1ccc2c(c1)O[As](O[As]1Oc3ccccc3O1)O2	1.35 µM	4.43 µM	1.86 µM	13.2 µM	5.42 µM	20.2 µM	6.47 µM	21.4 µM	2.45 µM	7.21 µM	2.56 µM	8.54 µM	3.18 µM	15.3 µM	3.04 µM	15.1 µM	4.96 µM	18.4 µM	2.8 µM	13.9 µM
O=C(NO)c1ccc(C(=O)NO)cc1	–	35.7 µM	–	> 100 µM	–	> 100 µM	–	> 100 µM	–	92.9 µM	–	> 100 µM	–	> 100 µM	–	> 100 µM	–	45.5 µM	–	> 100 µM
COC1/C=C/O[C@@]2(C)Oc3c(C)c(O)c4c(O)c(cc(O)c4c3C2=O)NC(=O)/C(C)=C\C=C\[C@H](C)C(O)[C@@H](C)[C@@H](O)[C@@H](C)[C@H](OC(C)=O)[C@@H]1C (some centres not stated)	16.5 µM	30.1 µM and 116 µM	17.3 µM	32.3 µM and 29.7 µM	4.25 µM	15.5 µM and 10.6 µM	16.9 µM	30.5 µM and 41.9 µM	7.42 µM	36.3 µM and 62.5 µM	16.9 µM	30.8 µM and 98.6 µM	13.8 µM	27 µM and 35.7 µM	–	52 µM and 57.3 µM	15.8 µM	29.2 µM and 49.2 µM	17.2 µM	31.6 µM and 40.4 µM
COc1ccc2c(c1)Oc1nc(N)c(C#N)c(N)c1C2Sc1ccc(SC)cc1 (configuration not stated)	1.73 µM	3.19 µM	1.83 µM	4.5 µM	1.85 µM	3.6 µM	1.74 µM	3.11 µM	2.83 µM	6.87 µM	–	–	1.76 µM	3.33 µM	1.71 µM	3.15 µM	1.78 µM	3.36 µM	1.74 µM	3.23 µM
Cc1oc2ccccc2c(=O)c1Cn1nnc2ccccc21	–	> 100 µM	–	49.2 µM	–	> 100 µM	–	> 100 µM	–	> 100 µM	–	–	–	> 100 µM	–	> 100 µM	–	> 100 µM	–	> 100 µM
O=S(=O)(c1cccc(C(F)(F)F)c1)N1c2ccccc2-n2cccc2C1c1cccnc1 (configuration not stated)	–	> 53.1 µM	–	> 76 µM	–	> 54.6 µM	–	> 74.1 µM	–	> 56.6 µM	–	> 100 µM	–	> 55.8 µM	–	> 59 µM	–	43.7 µM	–	> 42.2 µM
Cc1c(Cl)cccc1NC(=O)CC1Sc2ccccc2NC1=O (configuration not stated)	–	34.9 µM and 33.6 µM	–	> 87 µM	–	> 100 µM	–	63.6 µM and 69.8 µM	–	> 100 µM	–	77.4 µM and > 100 µM	–	81.7 µM and 93 µM	27.4 µM and 55 µM	> 100 µM	–	52.7 µM and 34.9 µM	–	9.79 µM
COc1cc(OC)c(-c2cc(=O)c3c(OC)c(OC)c(OC)c(OC)c3o2)cc1OC	–	> 100 µM	–	> 100 µM	–	> 100 µM	–	> 100 µM	–	> 100 µM	–	> 100 µM	–	> 100 µM	–	> 100 µM	–	> 100 µM	–	> 100 µM
O=C(NNc1nc2cc(F)ccc2n2c(CN3CCOCC3)ccc12)c1ccccc1	0.207 µM	2.19 µM	0.219 µM	1.31 µM	0.261 µM	1.56 µM	0.079 µM	1.41 µM	0.175 µM	2.18 µM	0.223 µM	1.5 µM	0.173 µM	1.26 µM	0.29 µM	1.78 µM	0.569 µM	3.07 µM	0.603 µM	2.4 µM
C=CC1CC12C(=O)C1OC2(C)C2C(=O)c3ccccc3C(=O)C12 (configuration not stated)	38.7 µM	> 100 µM	42.9 µM	> 76.1 µM	> 100 µM	> 100 µM	57.3 µM	> 100 µM	1.54 µM	11.1 µM	21.7 µM	58.6 µM	> 100 µM	> 100 µM	> 71 µM	> 100 µM	> 100 µM	> 100 µM	> 40.1 µM	> 54.4 µM
COc1ccc(-c2nc(-c3nc4ccc(F)cc4[nH]3)cc3c2[nH]c2ccccc23)cc1	2.42 µM	7.26 µM	2.53 µM	> 100 µM	2.1 µM	4.71 µM	2.87 µM	> 100 µM	1.56 µM	6.14 µM	3.87 µM	> 100 µM	2.54 µM	7.12 µM	3.4 µM	> 100 µM	3.71 µM	26.2 µM	2.58 µM	13.4 µM
CO/N=C(\c1ccccc1)c1cnn(-c2ccccc2)c1N	> 25 µM	> 25 µM	> 25 µM	> 25 µM	> 25 µM	> 25 µM	> 25 µM	> 25 µM	> 25 µM	> 25 µM	> 25 µM	> 25 µM	> 25 µM	> 25 µM	> 25 µM	> 25 µM	> 25 µM	> 25 µM	> 25 µM	> 25 µM
O=C1C(=O)c2ccc(Br)cc2-c2cc(Br)ccc21	1.42 µM	9.04 µM	2.34 µM	8.61 µM	> 100 µM	> 100 µM	1.52 µM	–	0.522 µM	1.66 µM	2.09 µM	9.92 µM	6.34 µM	> 66.6 µM	5.52 µM	> 55.5 µM	21.3 µM	> 100 µM	1.76 µM	4.07 µM
Cc1c(Cl)ccc2c1NC(=O)C2(O)CC(=O)c1ccc(Cl)cc1Cl (configuration not stated)	–	> 50 µM	–	> 50 µM	–	> 50 µM	–	> 50 µM	–	> 50 µM	–	> 50 µM	–	> 50 µM	–	> 50 µM	–	> 50 µM	–	> 50 µM
Cc1ccc(NS(=O)(=O)c2ccc(-c3cnc(C4CC4)o3)cc2)cc1	4.18 µM	17.5 µM	1.55 µM	14.9 µM	3.64 µM	16.1 µM	4.43 µM	18.4 µM	3.22 µM	20.9 µM	2.77 µM	15.4 µM	1.56 µM	11.7 µM	6.22 µM	20.1 µM	10.8 µM	23.5 µM	0.879 µM	3.94 µM
Brc1c[n+](Cc2ccc3ccccc3c2)cn1Cc1ccc2ccccc2c1	1.67 µM	3.51 µM	1.59 µM	3.39 µM	1.31 µM	3.16 µM	11.8 µM	25.5 µM	1.79 µM	5.58 µM	2.03 µM	5.17 µM	1.4 µM	2.92 µM	1.55 µM	3.09 µM	1.46 µM	2.84 µM	1.69 µM	3.22 µM
CN(C(=O)C1CCCCC1)c1ccccc1I(=O)=O	31.3 µM	> 100 µM	43.7 µM	> 100 µM	14.6 µM	29.8 µM	39.4 µM	> 100 µM	18 µM	51.8 µM	36.8 µM	> 100 µM	–	–	22.8 µM	56.9 µM	70.3 µM	> 100 µM	41.4 µM	> 100 µM
COc1ccc(-c2cc3c4c(nc5ccccc5c4c2)CC(c2cc(OC)c(OC)c(OC)c2)O3)cc1 (configuration not stated)	1.76 µM	4.83 µM	2.36 µM	79.5 µM	–	–	1.58 µM	3.11 µM	> 100 µM	> 100 µM	1.52 µM	3.06 µM	2.96 µM	28.7 µM	2.36 µM	6.62 µM	4.32 µM	> 100 µM	2.99 µM	13.7 µM
